Experimental data: patent publication US9487512B2, “(Hetero)aryl cyclopropylamine compounds as LSD1 inhibitors” (ORYZON GENOMICS, S.A., priority 2011, dated 2016)

What was measured:
[1] = biological target: Human recombinant monoamine oxidase MAO-A (Homo sapiens (Human), UniProt P21397); assay: Monoamine oxidase assay (kynuramine to 4-hydroxyquinoline fluorescence), MAO-A; format: biochemical
Description: (§1) Human recombinant monoamine oxidase proteins MAO-A and MAO-B were purchased from Sigma Aldrich. MAOs catalyze the oxidative deamination of primary, secondary and tertiary amines. In order to monitor MAO enzymatic activities and/or their inhibition rate by inhibitor(s) of interest, a fluorescence-based (inhibitor)-screening assay was set up. 3-(2-Aminophenyl)-3-oxopropanamine (kynuramine dihydrobromide, Sigma Aldrich), a non fluorescent compound was chosen as a substrate. Kynuramine is a non-specific substrate for both MAO-A and MAO-B activities. While undergoing oxidative deamination by MAO activities, kynuramine is converted into 4-hydroxyquinoline (4-HQ), a resulting fluorescent product.
(§2) The monoamine oxidase activity was estimated by measuring the conversion of kynuramine into 4-hydroxyquinoline. Assays were conducted in 96-well black plates with clear bottom (Corning) in a final volume of 100 μL. The assay buffer was 100 mM HEPES, pH 7.5. Each experiment was performed in duplicate within the same experiment.
(§3) Clorgyline and Deprenyl (Sigma Aldrich) was used as a control for specific inhibition of MAO-A and MAO-B respectively. […]
(§4) The IC50 values of each inhibitor were calculated with GraphPad Prism Software.

[2] = biological target: Human recombinant monoamine oxidase MAO-B (Homo sapiens (Human), UniProt P27338); assay: Monoamine oxidase assay (kynuramine to 4-hydroxyquinoline fluorescence), MAO-B; format: biochemical
Description: as §1, §2, §3, §4

[3] = biological target: Human recombinant LSD1 protein (Homo sapiens (Human), UniProt O60341); assay: Inhibition of LSD1 (Amplex Red H2O2 release, di-methylated H3-K4 peptide substrate)

Human recombinant monoamine oxidase MAO-A, sequence (P21397 whole entry): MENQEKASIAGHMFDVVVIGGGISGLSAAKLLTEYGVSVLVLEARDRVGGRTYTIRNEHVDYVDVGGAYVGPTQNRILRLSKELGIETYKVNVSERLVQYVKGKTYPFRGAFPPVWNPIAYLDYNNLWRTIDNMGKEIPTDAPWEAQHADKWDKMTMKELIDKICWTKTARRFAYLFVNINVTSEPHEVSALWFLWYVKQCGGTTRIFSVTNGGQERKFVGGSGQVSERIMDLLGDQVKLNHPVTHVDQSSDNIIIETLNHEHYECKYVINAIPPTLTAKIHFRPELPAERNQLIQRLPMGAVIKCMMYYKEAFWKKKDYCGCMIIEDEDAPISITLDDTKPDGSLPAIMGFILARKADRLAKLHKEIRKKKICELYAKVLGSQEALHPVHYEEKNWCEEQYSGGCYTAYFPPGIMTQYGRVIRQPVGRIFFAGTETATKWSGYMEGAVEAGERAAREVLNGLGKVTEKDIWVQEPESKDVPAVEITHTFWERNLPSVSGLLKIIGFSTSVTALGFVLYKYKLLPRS
Human recombinant monoamine oxidase MAO-B, sequence (P27338 whole entry): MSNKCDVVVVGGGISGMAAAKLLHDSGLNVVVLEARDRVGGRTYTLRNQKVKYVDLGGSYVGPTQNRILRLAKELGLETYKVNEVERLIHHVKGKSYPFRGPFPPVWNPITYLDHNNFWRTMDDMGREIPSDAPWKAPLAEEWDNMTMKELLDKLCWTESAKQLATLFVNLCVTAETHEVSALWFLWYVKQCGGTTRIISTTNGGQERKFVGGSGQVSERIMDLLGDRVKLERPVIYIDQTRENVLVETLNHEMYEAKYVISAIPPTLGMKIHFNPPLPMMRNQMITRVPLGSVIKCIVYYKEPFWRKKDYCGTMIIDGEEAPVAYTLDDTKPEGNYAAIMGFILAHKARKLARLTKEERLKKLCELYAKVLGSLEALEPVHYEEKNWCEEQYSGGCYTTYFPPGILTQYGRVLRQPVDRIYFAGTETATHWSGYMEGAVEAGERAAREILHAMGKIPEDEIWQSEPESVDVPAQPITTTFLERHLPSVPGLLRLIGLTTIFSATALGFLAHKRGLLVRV

Q: Which IC50 [1] does the source give for `Oc1ccc(C2CC2NC2CCNCC2)cc1` (stereo not drawn) [Example 23, 4-(2-(piperidin-4-ylamino)cyclopropyl)phenol] here?
A: > 100 µM

Q: And the IC50 [2]?
A: > 100 µM

Q: And the IC50 [3]?
A: ~100 µM
